Assay results from patent publication US6787530B1, “Use of pregnane-diones as analgesic agents” (priority 1996, dated 2004).

What was measured:
[1] = system: patients scheduled for knee reconstruction surgery; experiment: Phase 1 study of oral alphadolone after knee reconstruction surgery: pain scores, PCA morphine consumption, CPM; format: in vivo, human; conditions: for morphine consumption from the PCA machine vs total range of placebo patients: single patients at 100, 250 and 500 mg orally
Description: A pilot clinical study entitled “Investigation of the analgesic properties of alphadolone acetate administered orally to man—a dose escalation and efficacy study” was submitted to Monash Medical Centre Human Research and Ethics Committee A. It was approved and registered with the Therapeutics Goods Administration it Canberra under the Clinical Trials Notification (CTN) scheme. This was a small pilot study of phase 1 type design but incorporating some randomisation and placebo control because of the nature of the measurements, i.e. subjective pain measurements. The study was performed prospectively, one in three patients randomised to receive placebo formulation (lactose) and double-blind i.e. neither the patient nor the observer (a research anaesthetic registrar) were aware of the nature of the treatment, placebo or alphadolone.
The study consisted of two phases. The first phase was a dose escalation study. At any time during this phase as well as the second phase, if the patient was randomised to receive placebo then a capsule containing lactose was administered orally at the time of medication. If the patient was randomised to receive alphadolone then the first patient so randomised received 25 mg alphadolone acetate orally. The patient was monitored for efficacy of the medication and side effects. If there were no unacceptable side effects such as respiratory depression or severe sedation or disorientation then the next patient randomised to receive the active treatment received a higher dose. The dose escalation planned was in the order, 25, 50, 100, 250, 500 and 1000 mg. The original plan was to continue dose escalation until unacceptable side effects occurred and then to reduce the dose to go onto the next, second, phase of the study, a double-blind comparison of the dose just below the high dose that produced unacceptable side effects compared with placebo. However, the view of the Ethics Committee was that this was more appropriate to a drug company sponsored trial and they ordered that the trial should switch from the dose escalation phase to the comparison phase when there was clear evidence of efficacy.
Thus in the second phase of the study, a double-blind comparison of 250 mg of alphadolone with placebo was carried out. Patient 8, 10, 13 and 14 received 250 mg of alphadolone and patient 9, 11 and 12 received placebo.
14 patients scheduled for knee reconstruction surgery were recruited to this study. On the day prior to surgery for morning surgical patients or on the morning prior to afternoon surgery in those patients scheduled for afternoon lists, written informed consent was obtained from the patients after inclusion and exclusion criteria were met. The patient had to be ASA class 1 or 2, between 18 and 70 years, not using regular analgesics apart from paracetamol and non-steroid anti-inflammatory drugs. These were withheld on the day of surgery. The patient also had to have no renal, hepatic or respiratory disease other than mild asthma and could not be pregnant. No epidural/spinal/knee local anaesthetic or opioid injections were allowed. All patients had to receive post-operative morphine from a patient controlled analgesia device. After obtaining informed consent the patients were then given an opportunity to familiarise themselves with the PCA machine and also practice completing the visual analogue and verbal rating scales used for post-operative assessments.
No premedication was given. The patients were taken to the operating theatre and subjected to a standardised anaesthetic regime that consisted of a propofol induction followed by a propofol infusion and the muscle relaxant of the anaesthetist's preference The trachea was intubated and lungs ventilated with a mixture of nitrous oxide and oxygen. Morphine 1-2 mg intravenously was given as indicated by normal signs of depth of anaesthesia. The amount of morphine used in the operating theatre was recorded in the case record form. […]

[2] = system: spinal cord GABAA receptors
Method: A study was performed on five rats. Alphadolone ([…]) was suspended in normal saline. The five rats were randomised to receive on two different occasions on two different days either […]. This was a cross-over study such that on the following occasion if a rat had received vehicle on the first occasion then it received alphadolone on the second occasion and vice versa. This dosing was randomised and the observer making measurements of pain thresholds was blinded to the nature of the drug given to these rats. In each experiment, the electrical current threshold in the neck and the tail were measured every five minutes until three stable readings were obtained. Then either vehicle or alphadolone 750 mg per kg suspended in saline was instilled into the stomach via an oesophageal needle. Five minutes later and every five minutes thereafter, electrical current thresholds for nociception were measured in the skin of the tail and neck At 60 minutes 10 pmol of bicuculline in 5 μl 6% dextrose was injected intrathecally down a Portex catheter that had been implanted previously in the lumbar sub arachnoid space to lie adjacent to the most caudal segments of spinal cord responsible for tail innervation.

[3] = Plasma alphadolone and glucuronide metabolite levels after oral capsule; format: in vivo, human
Method: The patients who had alphadolone administered orally to them, had blood samples taken at time 0, the time of drug administration, and at ½ hour intervals for 6 hours This blood was sent off to a laboratory at the Royal Melbourne Institute of Technology for analysis of blood alphadolone levels. It can be seen from Example 5 that no measurable alphadolone was found in the blood of these patients who were reporting useful analgesia with decreased morphine requirements. […] These experiments mean that very little or no free alphadolone was present in these patient's blood, but large quantities of alphadolone was present as the glucuronide metabolite. This evidence supports further our claim that the analgesic effects of alphadolone and alphadolone acetate given by oral and intraperitoneal routes involves activity of metabolites in general and the glucuronide in particular.
All patients had 10 ml of blood taken from a vein immediately prior to the capsule administration and also 30 minutes, one hour, 1½ hours, 2 hours, 3 hours, 4 hours and 6 hours after capsule administration. The blood was placed in heparinised tubes, centrifuged and the plasma decanted for later analysis of blood alphadolone levels by the Key Centre for Applied and Nutritional Toxicology, Royal Melbourne Institute of Technology.
No alphadolone was detected in the plasma. The lower limit of detection was 50 ng/ml. […] In 5 of these patients the metabolite was detected in the first sample taken after the alphadolone capsule had been given.

[4] = up to six hours after capsule, 100, 250 and 500 mg orally, n = 7
[5] = plasma treated with glucuronidase, 250 mg, 5 patients, 500 mg, one patient

## CC(=O)OCC(=O)[C@H]1CC[C@H]2[C@@H]3CC[C@H]4C[C@H](O)CC[C@]4(C)[C@H]3C(=O)C[C@]12C [alphadolone, 21-acetoxy-3alpha-hydroxy-5alpha-pregnane-11,20-dione]
[1]; 250 mg and 500 mg given orally
  morphine requirement and pain relief after major knee surgery: reduced the morphine requirement for pain relief after major knee surgery and at the same time improved the pain relief
[1]; (3.62÷12.42)×100% vs placebo
  morphine sparing over six hours: 29.1%
[1]; PCA morphine, alphadolone treated patients (placebo 12.42 mg)
  mean morphine usage during the six-hour period after capsule ingestion: 8.8 mg
[1]; VAS after capsule as ratio of pre-capsule readings, six hours, 100, 250 and 500 mg orally
  Standardised VAS scores; Mann-Whitney U-Test, Mean rank: 82.85
[1]; between one and six hours after capsule
  morphine consumption from the PCA machine vs total range of placebo patients: fell outside the total range of morphine used by placebo treated patients
[1]; n = 7 vs placebo n = 5, p=0.006
  verbal rating pain scores compared with placebo (chi squared test): significantly lower pain scores
[1]; n = 7 vs placebo n = 5, p=0.0117
  standardised visual analogue scores compared with placebo (Mann-Whitney U-test): significantly lower standadised visual analogue scores
[1]; p=0.0153, p=0.00651 with 3 and 4 mg cells combined
  morphine usage compared with placebo (chi-square): use less than placebo treated patients
[1]; six hours after capsule, n = 7
  Morphine doses in half-hour periods: 0 mg, frequency: 39
  Morphine doses in half-hour periods: 1 mg, frequency: 29
  Morphine doses in half-hour periods: 2 mg, frequency: 15
  Morphine doses in half-hour periods: 3 mg, frequency: 1
  Morphine doses in half-hour periods: 4 mg, frequency: 0
[1]; six hours after capsule, single patients at 25, 50 and 100 mg orally
  morphine usage with increasing alphadolone dose: progressive reduction in morphine usage
[1]; six hours after capsule
  morphine consumption from the PCA machine vs total range of placebo patients: fell outside the total range of the morphine consumption of placebo treated patients
[1]; [4]
  Verbal rating scales for pain: Mild, frequency: 53
  Verbal rating scales for pain: Moderate, frequency: 20
  Verbal rating scales for pain: No pain, frequency: 6
  Verbal rating scales for pain: Severe, frequency: 4
[2]; 750 mg per kg intragastric, suspended in saline, five rats, cross-over vs vehicle
  electrical current threshold in the skin of the tail and the neck: sharp rise in the electrical current threshold
[2]; 750 mg per kg intragastric, five rats
  sedation (observation of the animals): no animals seemed to be sedated in any form whatsoever
[2]; given intragastrically to rats
  antinociception (pain relief): powerful antinociception
[2]; range of doses intragastrically to rats
  sedation: no sedation, even at very large doses
[3]; oral capsule, samples up to 6 hours, without glucuronidase treatment
  alphadolone in plasma (lower limit of detection): < 50 ng/mL
[3]; [5]
  alphadolone metabolite (glucuronide) in plasma: microgram/ml concentrations
  alphadolone metabolite in plasma at the 6 hour sampling time point: still present, although decaying
